{
  "source": "the supplement of paper PMC10307832",
  "assay_in_all_cases": "relative viability (nuclei count vs DMSO), 5 days (fraction); higher = more cells survive",
  "key": {"NCI-H1563": {"tested_on": "NCI-H1563", "in_short": "(§1)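 Lung cancer cell lines, seeded in 1536-well plates, were treated the following day by pin tool with a single drug or with five library-drug doses (not always all listed) in √10 steps on top of a fixed anchor-drug dose. Cells were fixed and nuclei stained in one step after 5 days, and nuclei were counted. Relative viability is the nuclei count for treated wells divided by that for vehicle wells, reported as medians of duplicate plates.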"}, "NCI-H3122": {"tested_on": "NCI-H3122", "in_short": "as §1"}, "LC-2-ad": {"tested_on": "LC-2-ad", "in_short": "as §1"}, "HARA": {"tested_on": "HARA", "in_short": "as §1"}, "NCI-H647": {"tested_on": "NCI-H647", "in_short": "as §1"}, "NCI-H1666": {"tested_on": "NCI-H1666", "in_short": "as §1"}, "NCI-H1944": {"tested_on": "NCI-H1944", "in_short": "as §1"}, "NCI-H1734": {"tested_on": "NCI-H1734", "in_short": "as §1"}, "CAL-12T": {"tested_on": "CAL-12T", "in_short": "as §1"}, "NCI-H838": {"tested_on": "NCI-H838", "in_short": "as §1"}, "NCI-H522": {"tested_on": "NCI-H522", "in_short": "as §1"}, "H3255": {"tested_on": "H3255", "in_short": "as §1"}},
  "data": [
    {"molecule": "COCC1(CO)C(=O)C2CCN1CC2", "note": "(stereo not drawn) [PRIMA-1MET] + Cc1nc(Nc2ncc(C(=O)Nc3c(C)cccc3Cl)s2)cc(N2CCN(CCO)CC2)n1 [Dasatinib] (partner 0.075 µM)", "values": [
      {"measurement": "relative viability", "setting": "NCI-H1563; first compound 0.2 µM", "result": 0.502},
      {"measurement": "relative viability", "setting": "NCI-H1563; first compound 0.6325 µM", "result": 0.426},
      {"measurement": "relative viability", "setting": "NCI-H1563; first compound 6.325 µM", "result": 0.548},
      {"measurement": "relative viability", "setting": "NCI-H1563; first compound 20 µM", "result": 0.422},
      {"measurement": "relative viability", "setting": "NCI-H3122; first compound 0.2 µM", "result": 0.382},
      {"measurement": "relative viability", "setting": "NCI-H3122; first compound 0.6325 µM", "result": 0.806},
      {"measurement": "relative viability", "setting": "NCI-H3122; first compound 2 µM", "result": 0.439},
      {"measurement": "relative viability", "setting": "NCI-H3122; first compound 6.325 µM", "result": 0.433},
      {"measurement": "relative viability", "setting": "NCI-H3122; first compound 20 µM", "result": 0.856},
      {"measurement": "relative viability", "setting": "LC-2-ad; first compound 0.2 µM", "result": 0.346},
      {"measurement": "relative viability", "setting": "LC-2-ad; first compound 2 µM", "result": 0.472},
      {"measurement": "relative viability", "setting": "LC-2-ad; first compound 6.325 µM", "result": 0.584},
      {"measurement": "relative viability", "setting": "LC-2-ad; first compound 20 µM", "result": 0.508},
      {"measurement": "relative viability", "setting": "HARA; first compound 0.2 µM", "result": 0.303},
      {"measurement": "relative viability", "setting": "HARA; first compound 0.6325 µM", "result": 0.257},
      {"measurement": "relative viability", "setting": "HARA; first compound 6.325 µM", "result": 0.294},
      {"measurement": "relative viability", "setting": "HARA; first compound 20 µM", "result": 0.252},
      {"measurement": "relative viability", "setting": "NCI-H647; first compound 0.2 µM", "result": 0.165},
      {"measurement": "relative viability", "setting": "NCI-H647; first compound 0.6325 µM", "result": 0.16},
      {"measurement": "relative viability", "setting": "NCI-H647; first compound 2 µM", "result": 0.156},
      {"measurement": "relative viability", "setting": "NCI-H647; first compound 6.325 µM", "result": 0.173},
      {"measurement": "relative viability", "setting": "NCI-H647; first compound 20 µM", "result": 0.0339},
      {"measurement": "relative viability", "setting": "NCI-H1666; first compound 0.2 µM", "result": 0.801},
      {"measurement": "relative viability", "setting": "NCI-H1666; first compound 0.6325 µM", "result": 0.79},
      {"measurement": "relative viability", "setting": "NCI-H1666; first compound 2 µM", "result": 0.807},
      {"measurement": "relative viability", "setting": "NCI-H1666; first compound 6.325 µM", "result": 0.846},
      {"measurement": "relative viability", "setting": "NCI-H1666; first compound 20 µM", "result": 0.639},
      {"measurement": "relative viability", "setting": "NCI-H1944; first compound 0.2 µM", "result": 0.225},
      {"measurement": "relative viability", "setting": "NCI-H1944; first compound 0.6325 µM", "result": 0.19},
      {"measurement": "relative viability", "setting": "NCI-H1944; first compound 2 µM", "result": 0.213},
      {"measurement": "relative viability", "setting": "NCI-H1944; first compound 6.325 µM", "result": 0.219},
      {"measurement": "relative viability", "setting": "NCI-H1944; first compound 20 µM", "result": 0.232},
      {"measurement": "relative viability", "setting": "NCI-H1734; first compound 0.2 µM", "result": 0.498},
      {"measurement": "relative viability", "setting": "NCI-H1734; first compound 0.6325 µM", "result": 0.303},
      {"measurement": "relative viability", "setting": "NCI-H1734; first compound 2 µM", "result": 0.426},
      {"measurement": "relative viability", "setting": "NCI-H1734; first compound 6.325 µM", "result": 0.384},
      {"measurement": "relative viability", "setting": "NCI-H1734; first compound 20 µM", "result": 0.0495},
      {"measurement": "relative viability", "setting": "CAL-12T; first compound 0.2 µM", "result": 0.34},
      {"measurement": "relative viability", "setting": "CAL-12T; first compound 0.6325 µM", "result": 0.341},
      {"measurement": "relative viability", "setting": "CAL-12T; first compound 2 µM", "result": 0.456},
      {"measurement": "relative viability", "setting": "CAL-12T; first compound 6.325 µM", "result": 0.364},
      {"measurement": "relative viability", "setting": "CAL-12T; first compound 20 µM", "result": 0.0829},
      {"measurement": "relative viability", "setting": "NCI-H838; first compound 0.2 µM", "result": 0.31},
      {"measurement": "relative viability", "setting": "NCI-H838; first compound 0.6325 µM", "result": 0.279},
      {"measurement": "relative viability", "setting": "NCI-H838; first compound 6.325 µM", "result": 0.279},
      {"measurement": "relative viability", "setting": "NCI-H838; first compound 20 µM", "result": 0.456},
      {"measurement": "relative viability", "setting": "NCI-H522; first compound 0.2 µM", "result": 0.797},
      {"measurement": "relative viability", "setting": "NCI-H522; first compound 0.6325 µM", "result": 0.738},
      {"measurement": "relative viability", "setting": "NCI-H522; first compound 2 µM", "result": 0.852},
      {"measurement": "relative viability", "setting": "NCI-H522; first compound 6.325 µM", "result": 0.68},
      {"measurement": "relative viability", "setting": "NCI-H522; first compound 20 µM", "result": 0.0665},
      {"measurement": "relative viability", "setting": "H3255; first compound 0.2 µM", "result": 0.285},
      {"measurement": "relative viability", "setting": "H3255; first compound 0.6325 µM", "result": 0.439}
    ]}
  ]
}
